Like-named read-outs stand apart in the source and are kept apart here.

This experiment has as its target ATR kinase (full-length ATR) (Homo sapiens (Human), UniProt Q13535). The experiment is described as follows: ATR inhibition assay (radioactive-phosphate incorporation). Type of experiment: biochemical. The essentials:
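Ki(app) was fitted by non-linear regression to background-corrected initial rates. Full-length ATR (5 nM) phosphorylated 800 μM peptide using 10 μM [γ-33P]ATP at 25° C in Tris/HCl pH 7.5 buffer with MgCl2, DTT and 7% DMSO. After 10-minute compound pre-incubation and 24-hour reaction, phosphocellulose filters were scintillation counted.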

Where [1] appears, read: Ki(app), 5 nM full-length ATR, 10 μM ATP, 25° C.

ATR kinase (full-length ATR), sequence (Q13535 whole entry): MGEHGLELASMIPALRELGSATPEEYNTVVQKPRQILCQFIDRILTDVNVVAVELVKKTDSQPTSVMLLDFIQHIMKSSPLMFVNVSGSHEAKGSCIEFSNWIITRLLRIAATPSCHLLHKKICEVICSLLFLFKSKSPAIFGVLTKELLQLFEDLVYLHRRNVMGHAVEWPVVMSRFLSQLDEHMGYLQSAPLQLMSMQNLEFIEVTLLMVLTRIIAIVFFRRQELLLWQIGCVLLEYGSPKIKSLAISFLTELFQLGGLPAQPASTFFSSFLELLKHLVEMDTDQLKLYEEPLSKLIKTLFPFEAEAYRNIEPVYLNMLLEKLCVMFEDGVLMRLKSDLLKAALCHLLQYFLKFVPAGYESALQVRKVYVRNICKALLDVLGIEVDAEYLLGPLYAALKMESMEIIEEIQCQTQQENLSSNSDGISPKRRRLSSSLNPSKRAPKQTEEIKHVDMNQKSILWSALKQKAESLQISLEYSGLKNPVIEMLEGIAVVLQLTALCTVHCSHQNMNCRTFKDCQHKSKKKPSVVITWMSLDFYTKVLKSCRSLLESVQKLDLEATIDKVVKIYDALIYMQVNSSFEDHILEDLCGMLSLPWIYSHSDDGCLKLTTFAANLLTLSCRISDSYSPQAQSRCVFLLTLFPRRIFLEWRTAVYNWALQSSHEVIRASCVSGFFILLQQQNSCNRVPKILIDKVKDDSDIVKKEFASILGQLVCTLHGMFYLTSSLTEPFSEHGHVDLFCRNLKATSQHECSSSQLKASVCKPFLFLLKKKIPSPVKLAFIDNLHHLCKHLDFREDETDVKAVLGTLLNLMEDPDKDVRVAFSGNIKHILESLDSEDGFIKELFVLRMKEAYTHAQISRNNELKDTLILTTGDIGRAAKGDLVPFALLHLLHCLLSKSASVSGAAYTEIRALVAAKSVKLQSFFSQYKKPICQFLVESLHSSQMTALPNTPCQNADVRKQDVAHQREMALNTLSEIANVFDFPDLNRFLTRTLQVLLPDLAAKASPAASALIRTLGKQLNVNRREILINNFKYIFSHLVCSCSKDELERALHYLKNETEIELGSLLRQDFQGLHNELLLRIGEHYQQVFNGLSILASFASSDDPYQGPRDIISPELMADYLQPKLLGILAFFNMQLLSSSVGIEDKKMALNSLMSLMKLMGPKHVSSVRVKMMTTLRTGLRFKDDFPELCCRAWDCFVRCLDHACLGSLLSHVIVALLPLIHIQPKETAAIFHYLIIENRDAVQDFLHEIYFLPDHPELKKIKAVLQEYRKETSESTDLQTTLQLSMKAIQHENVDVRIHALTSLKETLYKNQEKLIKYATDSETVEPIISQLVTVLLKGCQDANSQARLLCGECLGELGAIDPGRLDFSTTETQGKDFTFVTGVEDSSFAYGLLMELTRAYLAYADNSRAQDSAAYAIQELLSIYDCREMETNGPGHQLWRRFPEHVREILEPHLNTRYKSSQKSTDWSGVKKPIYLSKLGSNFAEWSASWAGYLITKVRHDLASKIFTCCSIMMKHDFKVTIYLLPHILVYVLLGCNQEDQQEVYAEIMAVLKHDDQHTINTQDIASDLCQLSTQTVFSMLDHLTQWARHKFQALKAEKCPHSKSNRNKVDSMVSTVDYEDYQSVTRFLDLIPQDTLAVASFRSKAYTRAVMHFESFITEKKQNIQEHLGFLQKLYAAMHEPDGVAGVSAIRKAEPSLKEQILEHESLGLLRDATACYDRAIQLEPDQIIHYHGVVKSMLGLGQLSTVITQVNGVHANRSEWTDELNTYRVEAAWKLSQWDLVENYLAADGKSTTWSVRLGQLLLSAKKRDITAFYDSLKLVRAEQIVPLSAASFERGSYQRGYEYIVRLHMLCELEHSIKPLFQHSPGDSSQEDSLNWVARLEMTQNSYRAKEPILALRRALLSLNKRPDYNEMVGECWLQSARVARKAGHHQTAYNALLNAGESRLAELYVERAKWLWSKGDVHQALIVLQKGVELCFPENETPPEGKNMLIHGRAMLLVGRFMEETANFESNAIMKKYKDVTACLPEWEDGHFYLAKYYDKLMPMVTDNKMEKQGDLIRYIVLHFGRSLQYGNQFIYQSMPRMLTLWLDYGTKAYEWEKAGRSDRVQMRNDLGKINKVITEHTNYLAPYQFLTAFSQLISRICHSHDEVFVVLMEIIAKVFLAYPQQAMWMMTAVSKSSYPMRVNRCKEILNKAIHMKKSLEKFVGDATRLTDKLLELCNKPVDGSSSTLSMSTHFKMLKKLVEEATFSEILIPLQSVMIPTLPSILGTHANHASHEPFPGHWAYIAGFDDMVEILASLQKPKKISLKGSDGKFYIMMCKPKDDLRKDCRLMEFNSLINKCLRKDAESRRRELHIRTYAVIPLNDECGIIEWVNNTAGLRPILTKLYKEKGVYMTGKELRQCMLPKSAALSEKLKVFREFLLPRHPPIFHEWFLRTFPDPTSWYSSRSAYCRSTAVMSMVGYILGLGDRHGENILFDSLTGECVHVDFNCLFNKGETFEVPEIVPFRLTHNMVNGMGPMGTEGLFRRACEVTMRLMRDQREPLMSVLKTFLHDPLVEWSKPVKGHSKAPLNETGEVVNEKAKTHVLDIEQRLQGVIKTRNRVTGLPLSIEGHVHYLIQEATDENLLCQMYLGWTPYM

Turning to `CN1CCC(c2ccncc2NC(=O)c2c(N)nn3cc(F)cnc23)CC1` [I-C-1, 2-amino-6-fluoro-N-(4-(1-methylpiperidin-4-yl)pyridin-3-yl)pyrazolo[1,5-a]pyrimidine-3-carboxamide], the Ki lay within 1000 to 5000 nM. As to `Nc1nn2cc(F)cnc2c1C(=O)Nc1cnccc1N1CCC(C(=O)N2CC3(COC3)C2)CC1` [I-G-88, N-(4-(4-(2-oxa-6-azaspiro[3.3]heptane-6-carbonyl)piperidin-1-yl)pyridin-3-yl)-2-amino-6-fluoropyrazolo[1,5-a]pyrimidine-3-carboxamide], under setting [1], the Ki is 10 to 1000 nM. In the case of `CN1CCC(C(=O)N2CCC(c3ccncc3NC(=O)c3c(N)nn4cc(F)cnc34)CC2)CC1` [I-C-16, 2-amino-6-fluoro-N-(4-(1-(1-methylpiperidine-4-carbonyl)piperidin-4-yl)pyridin-3-yl)pyrazolo[1,5-a]pyrimidine-3-carboxamide], under setting [1], the Ki fell in the range of 10 to 1000 nM. With `Nc1nn2cc(F)cnc2c1C(=O)Nc1cncc(Cl)c1N1CCNCC1` [I-N-126, 2-amino-N-(5-chloro-4-(piperazin-1-yl)pyridin-3-yl)-6-fluoropyrazolo[1,5-a]pyrimidine-3-carboxamide], the Ki under setting [1] lay in the range of 10 to 1000 nM. `Nc1nn2cc(F)cnc2c1C(=O)Nc1cncc(F)c1N1CCC(C(=O)NCCN2CCC2)CC1` [I-G-42, 2-amino-N-(4-(4-((2-(azetidin-1-yl)ethyl)carbamoyl)piperidin-1-yl)-5-fluoropyridin-3-yl)-6-fluoropyrazolo[1,5-a]pyrimidine-3-carboxamide]: the Ki under setting [1] fell in the range of 10 to 1000 nM. For the molecule `Nc1nn2cc(Cl)cnc2c1C(=O)Nc1cnccc1N1CCC(N2CC[S+]([O-])CC2)CC1` [I-N-100, 2-amino-6-chloro-N-(4-(4-(1-oxidothiomorpholino)piperidin-1-yl)pyridin-3-yl)pyrazolo[1,5-a]pyrimidine-3-carboxamide], under setting [1], the Ki is 10 to 1000 nM. Same read-out and setting: next, `Cc1cncc(NC(=O)c2c(N)nn3cc(Cl)cnc23)c1N1CCN(C)CC1` [I-N-57, 2-amino-6-chloro-N-(5-methyl-4-(4-methylpiperazin-1-yl)pyridin-3-yl)pyrazolo[1,5-a]pyrimidine-3-carboxamide]: 10 to 1000 nM; `Nc1nn2cc(F)cnc2c1C(=O)Nc1cncc(F)c1N1CCC(n2ccnc2)CC1` [I-N-288, N-(4-(4-(1H-imidazol-1-yl)piperidin-1-yl)-5-fluoropyridin-3-yl)-2-amino-6-fluoropyrazolo[1,5-a]pyrimidine-3-carboxamide]: 10 to 1000 nM.

Take `Nc1nn2cc(F)cnc2c1C(=O)Nc1cncc(Cl)c1N1CCC(C(=O)N2CCN3CCC2CC3)CC1` [I-G-66, N-(4-(4-(1,4-diazabicyclo[3.2.2]nonane-4-carbonyl)piperidin-1-yl)-5-chloropyridin-3-yl)-2-amino-6-fluoropyrazolo[1,5-a]pyrimidine-3-carboxamide]: under setting [1], the Ki fell in the range of 10 to 1000 nM. Same read-out and setting: next, `Nc1nn2cc(F)cnc2c1C(=O)Nc1cncc(F)c1N1CCC(N2CCCC2=O)CC1` [I-N-147, 2-amino-6-fluoro-N-(5-fluoro-4-(4-(2-oxopyrrolidin-1-yl)piperidin-1-yl)pyridin-3-yl)pyrazolo[1,5-a]pyrimidine-3-carboxamide]: 10 to 1000 nM; `Cc1ncn(-c2ccncc2NC(=O)c2c(N)nn3cc(F)cnc23)n1` [I-N-161, 2-amino-6-fluoro-N-(4-(3-methyl-1H-1,2,4-triazol-1-yl)pyridin-3-yl)pyrazolo[1,5-a]pyrimidine-3-carboxamide]: 10 to 1000 nM. `Cc1cncn1-c1ccncc1NC(=O)c1c(N)nn2cc(F)cnc12` [I-N-283, 2-amino-6-fluoro-N-(4-(5-methyl-1H-imidazol-1-yl)pyridin-3-yl)pyrazolo[1,5-a]pyrimidine-3-carboxamide]: the Ki under setting [1] lay within 10 to 1000 nM. Take `Nc1nn2cc(F)cnc2c1C(=O)Nc1cncc(F)c1N1CCC(C(=O)N2CCN(C3CC3)CC2)CC1` [I-G-13, 2-amino-N-(4-(4-(4-cyclopropylpiperazine-1-carbonyl)piperidin-1-yl)-5-fluoropyridin-3-yl)-6-fluoropyrazolo[1,5-a]pyrimidine-3-carboxamide]: under setting [1], the Ki was in the range of 10 to 1000 nM.

For `CS(=O)(=O)C1CCN(c2c(Cl)cncc2NC(=O)c2c(N)nn3cc(F)cnc23)C1` (stereo not drawn) [I-N-287, 2-amino-N-(5-chloro-4-(3-(methylsulfonyl)pyrrolidin-1-yl)pyridin-3-yl)-6-fluoropyrazolo[1,5-a]pyrimidine-3-carboxamide], the Ki under setting [1] was 10 to 1000 nM. As to `Nc1nn2cc(Cl)cnc2c1C(=O)Nc1cnccc1N1CC[S+]([O-])CC1` [I-N-68, 2-amino-6-chloro-N-(4-(1-oxidothiomorpholino)pyridin-3-yl)pyrazolo[1,5-a]pyrimidine-3-carboxamide], the Ki under setting [1] was 10 to 1000 nM. Regarding `N#CCc1cnc2c(C(=O)Nc3cnccc3OC3CCOC3)c(N)nn2c1` (racemic) [I-O-37, (R,S)-2-amino-6-(cyanomethyl)-N-(4-((tetrahydrofuran-3-yl)oxy)pyridin-3-yl)pyrazolo[1,5-a]pyrimidine-3-carboxamide], under setting [1], the Ki was < 10 nM. `Nc1nn2cc(F)cnc2c1C(=O)Nc1cnccc1-c1cccnc1F` [I-C-35, 2-amino-6-fluoro-N-(2-fluoro-[3,4′-bipyridin]-3′-yl)pyrazolo[1,5-a]pyrimidine-3-carboxamide]: the Ki under setting [1] lay in the range of 10 to 1000 nM. `Nc1nn2cc(F)cnc2c1C(=O)Nc1cnccc1N1CCN(C2COC2)C2CC21` (stereo not drawn) [I-N-31, 2-amino-6-fluoro-N-(4-(5-(oxetan-3-yl)-2,5-diazabicyclo[4.1.0]heptan-2-yl)pyridin-3-yl)pyrazolo[1,5-a]pyrimidine-3-carboxamide]: the Ki under setting [1] lay in the range of 1000 to 5000 nM.

With `Nc1nn2cc(F)cnc2c1C(=O)Nc1cncc(F)c1N1CCC(C(=O)N2CC(N3CCC3)C2)CC1` [I-G-49, N-(4-(4-([1,3′-biazetidine]-1′-carbonyl)piperidin-1-yl)-5-fluoropyridin-3-yl)-2-amino-6-fluoropyrazolo[1,5-a]pyrimidine-3-carboxamide], the Ki under setting [1] was 10 to 1000 nM.

For `N#CCc1cnc2c(C(=O)Nc3cnccc3OC3CCCCC3)c(N)nn2c1` [I-O-39, 2-amino-6-(cyanomethyl)-N-(4-(cyclohexyloxy)pyridin-3-yl)pyrazolo[1,5-a]pyrimidine-3-carboxamide], the Ki under setting [1] was < 10 nM. In the case of `Cc1ncccc1-c1ccncc1NC(=O)c1c(N)nn2cc(F)cnc12` [I-C-20, 2-amino-6-fluoro-N-(2-methyl-[3,4′-bipyridin]-3′-yl)pyrazolo[1,5-a]pyrimidine-3-carboxamide], under setting [1], the Ki lay within 10 to 1000 nM. Consider `N#CCc1cnc2c(C(=O)Nc3cnccc3OC3CNC3)c(N)nn2c1` [I-O-82, 2-amino-N-(4-(azetidin-3-yloxy)pyridin-3-yl)-6-(cyanomethyl)pyrazolo[1,5-a]pyrimidine-3-carboxamide], for which the Ki under setting [1] is < 10 nM.

For the molecule `Cc1nnc(N2CCN(c3ccncc3NC(=O)c3c(N)nn4cc(F)cnc34)CC2)o1` [I-N-256, 2-amino-6-fluoro-N-(4-(4-(5-methyl-1,3,4-oxadiazol-2-yl)piperazin-1-yl)pyridin-3-yl)pyrazolo[1,5-a]pyrimidine-3-carboxamide], under setting [1], the Ki fell in the range of 10 to 1000 nM. `Nc1nn2cc(F)cnc2c1C(=O)Nc1cnccc1Oc1cccnc1` [I-O-7, 2-amino-6-fluoro-N-(4-(pyridin-3-yloxy)pyridin-3-yl)pyrazolo[1,5-a]pyrimidine-3-carboxamide]: the Ki under setting [1] was 10 to 1000 nM. Regarding `CN1CCN(C(=O)c2cnc(-c3ccncc3NC(=O)c3c(N)nn4cc(F)cnc34)c(Cl)c2)CC1` [I-C-46, 2-amino-N-(3-chloro-5-(4-methylpiperazine-1-carbonyl)-[2,4′-bipyridin]-3′-yl)-6-fluoropyrazolo[1,5-a]pyrimidine-3-carboxamide], the Ki under setting [1] lay within 10 to 1000 nM. Consider `N#CCc1cnc2c(C(=O)Nc3cnccc3OC3CCOCC3)c(N)nn2c1` [I-O-30, 2-amino-6-(cyanomethyl)-N-(4-((tetrahydro-2H-pyran-4-yl)oxy)pyridin-3-yl)pyrazolo[1,5-a]pyrimidine-3-carboxamide], for which, under setting [1], the Ki is < 10 nM.

As for `Nc1nn2cc(Cl)cnc2c1C(=O)Nc1cnccc1OC1CCNCC1` [I-O-80, 2-amino-6-chloro-N-(4-(piperidin-4-yloxy)pyridin-3-yl)pyrazolo[1,5-a]pyrimidine-3-carboxamide], the Ki under setting [1] lay in the range of 10 to 1000 nM. The same measure, in the same setting: next, `COCCOc1ccncc1NC(=O)c1c(N)nn2cc(CC#N)cnc12` [I-O-29, 2-amino-6-(cyanomethyl)-N-(4-(2-methoxyethoxy)pyridin-3-yl)pyrazolo[1,5-a]pyrimidine-3-carboxamide]: < 10 nM; `CC1(C)CCCN1c1ccncc1NC(=O)c1c(N)nn2cc(F)cnc12` [I-N-220, 2-amino-N-(4-(2,2-dimethylpyrrolidin-1-yl)pyridin-3-yl)-6-fluoropyrazolo[1,5-a]pyrimidine-3-carboxamide]: 10 to 1000 nM. For the molecule `COCCOc1ccncc1NC(=O)c1c(N)nn2cc(Cl)cnc12` [I-O-55, 2-amino-6-chloro-N-(4-(2-methoxyethoxy)pyridin-3-yl)pyrazolo[1,5-a]pyrimidine-3-carboxamide], under setting [1], the Ki is 10 to 1000 nM. Consider `CC1(N2CCN(c3ccncc3NC(=O)c3c(N)nn4cc(F)cnc34)CC2)COC1` [I-N-62, 2-amino-6-fluoro-N-(4-(4-(3-methyloxetan-3-yl)piperazin-1-yl)pyridin-3-yl)pyrazolo[1,5-a]pyrimidine-3-carboxamide], for which the Ki under setting [1] lay within 10 to 1000 nM. For `C[N+]1([O-])CCc2c(cncc2NC(=O)c2c(N)nn3cc(F)cnc23)C1` (stereo not drawn) [I-C-9, 5-(2-amino-6-fluoropyrazolo[1,5-a]pyrimidine-3-carboxamido)-2-methyl-1,2,3,4-tetrahydro-2,7-naphthyridine 2-oxide], the Ki under setting [1] was 10 to 1000 nM.

In the case of `CN1CCC(NC(=O)C2CCN(c3c(F)cncc3NC(=O)c3c(N)nn4cc(F)cnc34)CC2)CC1` [I-G-20, 2-amino-6-fluoro-N-(5-fluoro-4-(4-((1-methylpiperidin-4-yl)carbamoyl)piperidin-1-yl)pyridin-3-yl)pyrazolo[1,5-a]pyrimidine-3-carboxamide], the Ki under setting [1] was 10 to 1000 nM.

(Values after patent US10392391B2 (Vertex Pharmaceuticals Incorporated, priority 2012, dated 2019).)
